Columns and labels:
Type in all cases: cell-based, Escherichia coli
[1] = system: E. coli ATCC 25922; experiment: Membrane permeability assay (PI, flow cytometry); conditions: 1 h, untreated 0.79%
Method: (§1) According to the previously described method ([Fadhel Abbas Albaayit et al., 2022]), bacterial suspensions were diluted with PBS to concentration of 1.0×10^6 CFU/mL. […] 10 μM of propidium iodide (PI; Sigma, US) was added to each group and incubated at 37°C for 15 min in the dark. The samples were analyzed using a CytoFLEX flow cytometry (Beckman Coulter, USA), and the positive rate of PI was utilized as an indicator of bacterial membrane permeability.

[2] = system: E. coli E19; experiment: Membrane permeability assay (PI, flow cytometry); conditions: 1 h, untreated 2.13%
Method: as §1

[3] = system: E. coli ATCC 25922 and E19; experiment: Reactive oxygen species measurement (DCFH-DA); conditions: DCFH-DA 10 μM, MR-22 1, 2, 4 × MIC, 1 h, 37°C; ex 488/em 525 nm
Method: The fluorescence probe 2’,7’-dichlorodihydrofluorescein diacetate (DCFH-DA) was used to measure the intracellular generation of ROS. The bacterial suspension (1.0 × 10^6 CFU/mL) were mixed with DCFH-DA (the final concentration of 10 μM) and incubated for at 37°C 30 min in the dark. After incubation, the suspensions were treated with MR-22 (1, 2, 4 × MIC) at the indicated concentrations for 1 h at 37°C. The fluorescence intensity was evaluated using a multi-function fluorescent enzyme marker with an excitation wavelength of 488 nm and an emission wavelength of 525 nm. N-acetylcysteine (NAC) at a concentration of 24 mM was employed as a control agent for the purpose of quenching the production of reactive oxygen species.

For H-MAKRRKKAKKKAKKAKKRRRRR-NH2 [MR-22], the “PI fluorescence signals (PI-positive cells)” value (from here on “PI fluorescence signals”) ([1]; 1 × MIC) was 9.19%, the “PI fluorescence signals” value ([1]; 2 × MIC) was 39.10% and the “PI fluorescence signals” value ([1]; 4 × MIC) was 53.20%. The “percentage of PI-positive cells” value ([2]; 1 × MIC) was 7.83%, the “percentage of PI-positive cells” value ([2]; 2 × MIC) was 14.35% and the “percentage of PI-positive cells” value ([2]; 4 × MIC) was 25.14%. For the same substance, the “ROS accumulation in bacteria” value [3] was “increased significantly”.

Reference: publication PMC10847306, “The antibacterial activity and mechanism of a novel peptide MR-22 against multidrug-resistant Escherichia coli” (Frontiers in Cellular and Infection Microbiology, 2024)
